Results on 12 compounds are retold here after EP0350948B1, “Porphyrin derivatives” (TOYOHAKKA KOGYO KABUSHIKI KAISHA, priority 1988, dated 1990).

Data set [1] deals with nitrosoamine-induced pancreatic cancer. The data set can be described thus: laser irradiation to the extirpated organ (excited fluorescent spectrum, N2-PLS measurement), tumor to tissue ratio. In kind it is in vivo, Golden hamsters. The note with it: i.v. 25 mg/kg bodyweight, organs extirpated at 24 hours after administration. How it is done: Golden hamsters (males, 5 per group, bodyweight approximately 150 g) were implanted subcutaneously tumor cells of the nitrosoamine-induced pancreatic cancer. After 14 to 21 days following implantation, animals were intravenously (i.v.) administered the test substance EG-Ga-DP-diGly (10 mg/ml) which had been diluted with phosphate buffer at 25 mg/kg bodyweight. At 24 hours after administration, the organs including the tumor were extirpated, irradiated with N2-pulsed laser (N2, 337 nm, 2 ns, 400 - 1000 nm), and measured of excited fluorescent spectrum. The wavelengths of 600 - 900 nm were studied using the peak wavelength of NADH at 470 nm as a reference. (N2-PLS measurement). […] (Tumor to tissue ratio).
Excited fluorescent spectra of the organs extirpated at 24 hours after administration were measured, and the peak wavelength at 600 - 900 nm was calculated by setting the peak wavelength at 470 nm as the reference 1. As fluorescence in Mn, Fe and Cu complexes is not sufficiently intense as to enable N2-PLS measurement, the extraction method was applied to these compounds. At 24 hours following administration, the organs were extracted with an organic solvent (such as chloroform-methanol) via acetone powder, and the obtained extract was measured of UV or HPLC to calculate the tumor to tissue ratio.

For data set [2] the test system is unchanged. The data set can be described thus: in vivo hemorrhagic necrosis effect. Also noted: species or system hamsters; key to Hemorrhagic necrosis effect: four scales of G4, G3, G2 and G1; four scales of G4, G3, G2 and G1; four scales of G4, G3, G2 and G1; four scales of G4, G3, G2 and G1. The conditions noted are these: for photograph of a cancer mass (Fig. 2): 24 hours after administration, Cn-Ga-DP-diAsp, n = even numbers; for Hemorrhagic necrosis effect: intensity of hemorrhagic necrosis at 24 hours following i.v. administration, and pathological study. As to the method: Cancer bearing hamsters of Experiment 1 were i.v. administered the test substance C6-Ga-DP-diAsp (10) (10 mg/ml) which had been diluted with phosphate buffer at 25 mg/kg bodyweight and 12.5 mg/kg bodyweight respectively. The animals were exsanguinated and autopsied at 24 hours after administration, and observed.
The evaluation was based on the four scales of G4, G3, G2 and G1.

For data set [3] the test system is unchanged. The data set can be described thus: in vivo irradiation therapy using Yag laser. The conditions noted are these: i.v. 12.5 mg/kg bodyweight, Yag laser 1064 nm, 5 w, 10 sec x 4 at 24 hours after administration, autopsy 24 hours following irradiation. Also noted: species or system hamsters. How it is done:
Tumor bearing hamsters of Experiment 1 were i.v. administered the test materials C6-Ga-DP-diAsp (10) and C10 -Ga-DP-diAsp (16) (10 mg/ml) at 12.5 mg/kg bodyweight. At 24 hours after administration, the hair above the tumor site was shaved and irradiation with Yag laser commenced (1064 nm, 5 w, 10 sec x 4). At 24 hours following irradiation, the animals were exsanguinated and autopsied for observation.

Data set [4] has as its system Leukemia cells of a mouse (P388). The data set can be described thus: in vitro photosensitivity test (cell growth inhibition ratio). It is filed as cell-based. The note with it: irradiated at 10,000 lux for 1 hour, incubated for 48 hours, versus group shielded from light. As to the method: Leukemia cells of a mouse (P388) were placed in wells (a plate with 24 wells) at 5 x 10^4/well, and incubated for 2 hours. The test materials C8-Ga-DP-diAsp (12), C10-Mn-DP-diAsp (37) and photofrin II each at concentrations of 1.56, 3.13, 6.25, 12.5, 25, and 50 ng/ml (common ratio : 2) were prepared. The specified amounts of these test solutions were added to the above culture, irradiated at 10,000 lux for 1 hour, incubated for 48 hours, and the cells per one well were counted. A group shielded from light using an aluminium foil during irradiation was provided as control. The index of photosensitivity was obtained by dividing the cell counts of the respective groups with the cell count of an untreated group provided separately (cell growth inhibition ratio (%)).
However, this was attributed to the toxicity of the test material per se rather than to irradiation.

Data set [5] deals with nitrosoamine-induced pancreatic cancer. The data set can be described thus: in vivo cell growth inhibition effect (tumor size by slide calipers). Also noted: species or system hamsters. The conditions noted are these: i.v. 25 mg/kg bodyweight. As to the method: Tumor bearing hamsters of Experiment 1 were i.v. administered the test substance C10-Mn-DP-diAsp (37) (10 mg/ml) diluted by phosphate buffer at 25 mg/kg bodyweight. The tumor size was measured supracutaneously using slide calipers on an appropriate day following administration.

Data set [6] has the same test system. The data set can be described thus: pathology of tumor and organs (hematoxylin-eosin sections). It is filed as in vivo, hamsters. The note with it: treated as in Experiment 2, formalin fixed. As to the method:
Tumor bearing hamsters of Experiment 1 were treated similarly as in Experiment 2 except that they were administered C12-Mn-DP-diAsp (48) instead of C6-Ga-DP-diAsp (10). Organs including the tumor (the treated group and the control group) were fixed with formalin, embedded in paraffin, cut into sections, double stained with hematoxylin-eosin, and observed pathologically.
Figs. 4 and 5 show photographs of the tumor cell necrosis of the treated group. There were many cell necrosis images and necrotic layers which were not present in the non-cancerous organs and the control group.

The nature of data set [7]: luminescence properties of porphyrin derivatives (Table 1). In kind it is physicochemical. From the text:
There are two stages of destruction; Mechanism I under which the pigments are excited by light to assume the triple state which directly destroys the cancer cells, and Mechanism II under which the pigments in the triple state further excite oxygen to form the singlet state oxygen (activated oxygen) leading to cell necrosis. In the case of porphyrin derivatives, the Mechanism II is considered prevalent. By measuring the triple state life time (the fluorescence and phosphorescence life time) which indicates porphyrin's triple state, the length of phosphorescence life time is compared to reveal the intensity of photo-sensitivity. […] In other words, phosphorescence life time of metalloporphyrins coordinated with such metals as Zn and Ga is long while that of those coordinated with Mn, Fe, or Cu is very short.

Setting [8] is: i.v. 25 mg/kg and 12.5 mg/kg bodyweight, autopsy at 24 hours after administration.

Some results are limits rather than exact numbers.

Turning to `CCCCCCOC(C)C1=C(C)C2=Cc3c(C(C)OCCCCCC)c(C)c4[n]3[Ga][n]3c(c(C)c(CCC(=O)NC(CC(=O)O)C(=O)O)c3=CC3=NC(=C4)C(C)=C3CCC(=O)NC(CC(=O)O)C(=O)O)=CC1=N2` (stereo not shown) [(10) C6-Ga-DP-diAsp, 2,4-bis(1-hexyloxyethyl)-Ga-deuteroporphynyl diaspartic acid], in data set [1], the tumor/tissue cancer/ kidney is recorded as 6.86, the tumor/tissue cancer/ liver is reported as 5.33, the tumor/tissue cancer/ lung is reported as 5.33 and the tumor/tissue cancer/ serum amounted to 0.98. In data set [2], the “photograph of a cancer mass (Fig. 2)” value is reported as “hemorrhagic necrosis” and the Hemorrhagic necrosis effect entry is reported as “G4”. In data set [2] (setting [8]), the “changes of the organs such as the liver, lungs, kidneys excluding the tumor” value is recorded as “showed no changes” and the “effect on the cancer mass” value was “developed hemorrhagic necrosis”. Further, the “state of the cancer mass after Yag laser irradiation” value in data set [3] is reported as “necrotic”.

Consider `CCCCCCCCOC(C)C1=C(C)C2=Cc3c(C(C)OCCCCCCCC)c(C)c4[n]3[Ga][n]3c(c(C)c(CCC(=O)NC(CC(=O)O)C(=O)O)c3=CC3=NC(=C4)C(C)=C3CCC(=O)NC(CC(=O)O)C(=O)O)=CC1=N2` (stereo not shown) [(12) C8-Ga-DP-diAsp, 2,4-bis(1-octyloxyethyl)-Ga-deuteroporphynyl diaspartic acid], for which, in data set [1], the tumor/tissue cancer/ kidney was determined as 2.12, the tumor/tissue cancer/ liver stood at 1.47, the tumor/tissue cancer/ lung stood at 2.20 and the tumor/tissue cancer/ serum is given as 0.29. In data set [2], the “photograph of a cancer mass (Fig. 2)” value was “hemorrhagic necrosis” and the Hemorrhagic necrosis effect result is given as “G3”. For the same compound, the “concentration at which photosensitivity is manifested” value in data set [4] was ≥ 1.0 ng/mL.

Take `CCCCCCCCCCOC(C)C1=C(C)c2cc3[nH]c(cc4nc(cc5[nH]c(cc1n2)c(C)c5C(C)OCCCCCCCCCC)C(C)=C4CCC(=O)NC(CC(=O)O)C(=O)O)c(CCC(=O)NC(CC(=O)O)C(=O)O)c3C.[Ga]` (stereo not shown) [(16) C10-Ga-DP-diAsp, 2,4-bis(1-decyloxyethyl)-Ga-deuteroporphynyl diaspartic acid]: in data set [1], the tumor/tissue cancer/ kidney came out at 16.44, the tumor/tissue cancer/ liver turned out to be 11.54, the tumor/tissue cancer/ lung is given as 23.08 and the tumor/tissue cancer/ serum stood at 2.78. In data set [2], the “photograph of a cancer mass (Fig. 2)” value is “hemorrhagic necrosis” and the Hemorrhagic necrosis effect entry was “G2”. Besides, the “state of the cancer mass after Yag laser irradiation” value in data set [3] was “necrotic”.

Regarding `CC1=C(CCC(=O)NC(CC(=O)O)C(=O)O)C2=NC1=Cc1c(C)c(C(C)OCCC(C)CCCC(C)C)c3[n]1[Ga][n]1c(c(C)c(CCC(=O)NC(CC(=O)O)C(=O)O)c1=C2)=CC1=NC(=C3)C(C)=C1C(C)OCCC(C)CCCC(C)C` (stereo not shown) [(19) C10(H2Citro)-Ga-DP-diAsp, 2,4-bis(1-dihydrocitronellyloxyethyl)-Ga-deuteroporphynyl diaspartic acid], in data set [1], the tumor/tissue cancer/ kidney was 11.49, the tumor/tissue cancer/ liver is 9.09, the tumor/tissue cancer/ lung amounted to 11.11 and the tumor/tissue cancer/ serum turned out to be 3.50. Also, in data set [2], the Hemorrhagic necrosis effect entry is “G2”.

As for `CCCCCCCCCCCCOC(C)C1=C(C)c2cc3[nH]c(cc4nc(cc5[nH]c(cc1n2)c(C)c5C(C)OCCCCCCCCCCCC)C(C)=C4CCC(=O)NC(CC(=O)O)C(=O)O)c(CCC(=O)NC(CC(=O)O)C(=O)O)c3C.[Ga]` (stereo not shown) [(22) C12-Ga-DP-diAsp, 2,4-bis (1-dodecyloxyethyl)-Ga-deuteroporphynyl diaspartic acid], in data set [1], the tumor/tissue cancer/ kidney is given as 8.54, the tumor/tissue cancer/ liver was determined as 4.38, the tumor/tissue cancer/ lung is listed as 7.00 and the tumor/tissue cancer/ serum is 1.35. Moreover, in data set [2], the “photograph of a cancer mass (Fig. 2)” value is “hemorrhagic necrosis” and the Hemorrhagic necrosis effect result is reported as “G2”.

Turning to `CCCCCCCCCCOC(C)C1=C(C)c2cc3[nH]c(cc4nc(cc5[nH]c(cc1n2)c(C)c5C(C)OCCCCCCCCCC)C(C)=C4CCC(=O)NC(CC(=O)O)C(=O)O)c(CCC(=O)NC(CC(=O)O)C(=O)O)c3C.[Mn]` (stereo not shown) [(37) C10-Mn-DP-diAsp, 2,4-bis(1-decyloxyethyl)-Mn-deuteroporphynyl diaspartic acid], the Hemorrhagic necrosis effect result in data set [2] was “G3”. The “tumor growth compared to the control group (Fig. 6)” value in data set [5] is reported as “notable tumor growth inhibitory effect”. In addition, the photosensitivity entry in data set [4] is given as “no photosensitivity”.

As for `CCCCCCCCCCCCOC(C)C1=C(C)C2=Cc3c(C(C)OCCCCCCCCCCCC)c(C)c4[n]3[Mn][n]3c(c(C)c(CCC(=O)NC(CC(=O)O)C(=O)O)c3=CC3=NC(=C4)C(C)=C3CCC(=O)NC(CC(=O)O)C(=O)O)=CC1=N2` (stereo not shown) [(48) C12-Mn-DP-diAsp, 2,4-bis(1-dodecyloxyethyl)-Mn-deuteroporphynyl diaspartic acid], the Hemorrhagic necrosis effect result in data set [2] is recorded as “G4”. Moreover, in data set [6], the “pathological observation of the tumor (Fig. 4)” value was “necrotic tumor cells”. Moreover, the “tumor growth compared to the control group (Fig. 6)” value in data set [5] is given as “notable tumor growth inhibitory effect”.

In data set [7], `C=CC1=C(C)c2cc3[n-]c(cc4nc(cc5[n-]c(cc1n2)c(C)c5CCC(=O)OC)C(CCC(=O)OC)=C4C)c(C)c3C=C.[Co+2]` [Co-PP-Me] came in with an Absorbance of 570 nm.

In data set [7], `C=CC1=C(C)c2cc3[n-]c(cc4nc(cc5[n-]c(cc1n2)c(C)c5CCC(=O)OC)C(CCC(=O)OC)=C4C)c(C)c3C=C.[Cu+2]` [Cu-PP-Me] came in with an Absorbance of 572 nm and a Phosphorescence of 705 nm. In data set [7] (Filter paper), the Phosphorescence life time is reported as 20 µs. In data set [7] (Solution), this compound gave a Phosphorescence life time of 100 µs.

For the compound `C=CC1=C(C)c2cc3[n-]c(cc4nc(cc5[n-]c(cc1n2)c(C)c5CCC(=O)OC)C(CCC(=O)OC)=C4C)c(C)c3C=C.[Mg+2]` [Mg-PP-Me], in data set [7], the Absorbance was 590 nm and the Fluorescence is listed as 600 nm.

In data set [7], `C=Cc1c(C)c2cc3[nH]c(cc4nc(cc5nc(cc1[nH]2)C(C)=C5CCC(=O)OC)C(CCC(=O)OC)=C4C)c(C)c3C=C` [PP-Me] had an Absorbance of 633 nm and a Fluorescence of 635 nm. The Phosphorescence life time in data set [7] (Filter paper) was 1.8 ms.

In data set [7], “Ga-protoporphyrin dimethyl ester [Ga-PP-Me]” displayed an Absorbance of 570 nm, a Fluorescence of 575 nm and a Phosphorescence of 715 nm. In data set [7] (Filter paper), this compound gave a Phosphorescence life time of 50 ms. Moreover, the Phosphorescence life time in data set [7] (Solution) was 200 ms.
